The values that follow are results of earlier work, collected in patent US20190192601A1, “EXTRACTS OF CYCLANTHERA PEDATA AND FORMULATIONS AND USES THEREOF” (priority 2014, published 2019).

The conditions of series [1]: in vivo.

Consider `O=C(CCCN1CCN(c2ccc(F)cc2)CC1)NC1c2ccccc2CSc2ccccc21` (stereo not drawn) [Monatepil], for which the plasma lipid levels result in series [1] is reported as “found to reduce”. For vitamin E, in the series with patients (supplementation with 30 IU to 100 IU), the “lower risk of heart disease” value was 41%. Moreover, in the series on patients (supplementation with 100 IU), the “progression of coronary artery disease” value is recorded as “reduced progression”.
